Measured values: patent US9113629B2, “4-amino-6-(4-substituted-phenyl)-picolinates and 6-amino-2-(4-substituted-phenyl)-pyrimidine-4-carboxylates and their use as herbicides” (DOW AGROSCIENCES LLC, priority 2013, dated 2015)
Read-outs that look alike come from different tables or passages of the source.

Key:
[1] = system: Key Broadleaf Weed and Crop Species; experiment: Post-emergent Test II herbicidal activity (Table 5); type: in vivo; settings: post-emergence, 336 h, 14 days after application; for pest or weed control at 70 g/ha: application rate 70 g ai/ha; for pest or weed control at 140 g/ha: application rate 140 g ai/ha
Summary of the method: (§1)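 Scoring: visual, 0–100% injury at 14 d versus untreated. Treatment: overhead track spray, 187 L/ha, onto plants at the first–second true leaf stage. Growth: greenhouse, ~15 h light, 23–29 °C day, 22–28 °C night.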

[2] = system: Key Grass and Sedge Weeds as well as Grass Crops; experiment: Post-emergent Test II herbicidal activity (Table 6); type: in vivo; settings: post-emergence, 336 h; for pest or weed control at 70 g/ha: 70 g ai/ha; for pest or weed control at 140 g/ha: 140 g ai/ha
Summary of the method: as §1

[3] = ABUTH: velvetleaf (Abutilon theophrasti), read-out: Visual Growth Reduction (%) 14 Days After Application, ABUTH
[4] = AMARE: redroot pigweed (Amaranthus retroflexus), read-out: Visual Growth Reduction (%) 14 Days After Application, AMARE
[5] = BRSNN: oilseed-rape, canola (Brassica napus), read-out: Visual Growth Reduction (%) 14 Days After Application, BRSNN
[6] = CHEAL: lambsquarters (Chenopodium album), read-out: Visual Growth Reduction (%) 14 Days After Application, CHEAL
[7] = EPHHL: wild poinsettia (Euphorbia heterophylla), read-out: Visual Growth Reduction (%) 14 Days After Application, EPHHL
[8] = HELAN: sunflower (Helianthus annuus), read-out: Visual Growth Reduction (%) 14 Days After Application, HELAN
[9] = VIOTR: wild pansy (Viola tricolor), read-out: Visual Growth Reduction (%) 14 Days After Application, VIOTR
[10] = CYPES: yellow nutsedge (Cyperus esculentus), read-out: Visual Growth Reduction (%) 14 Days After Application, CYPES
[11] = DIGSA: crabgrass (Digitaria sanguinalis), read-out: Visual Growth Reduction (%) 14 Days After Application, DIGSA
[12] = ECHCG: barnyardgrass (Echinochloa crus-galli), read-out: Visual Growth Reduction (%) 14 Days After Application, ECHCG
[13] = ORYSA: rice (Oryza sativa), crop, read-out: Visual Growth Reduction (%) 14 Days After Application, ORYSA
[14] = SETFA: giant foxtail (Setaria faberi), read-out: Visual Growth Reduction (%) 14 Days After Application, SETFA
[15] = SORVU: grain sorghum (Sorghum vulgare), read-out: Visual Growth Reduction (%) 14 Days After Application, SORVU
[16] = TRZSS (wheat, Triticum aestivum), crop, read-out: Visual Growth Reduction (%) 14 Days After Application, TRZSS
[17] = ZEAMX: maize, corn (Zea mays), crop, read-out: Visual Growth Reduction (%) 14 Days After Application, ZEAMX

Compound `COC(=O)c1nc(-c2ccc(Cl)c(F)c2)c(F)c(N)c1Cl` [Compound 216] has a pest or weed control at 70 g/ha [1, 3] of 95 to 100%, a pest or weed control at 140 g/ha [1, 3] of 95 to 100% and a pest or weed control at 70 g/ha [1, 4] of 95 to 100%. For the same compound, the pest or weed control at 140 g/ha [1, 4] was 95 to 100%, the pest or weed control at 70 g/ha [1, 5] was 75 to 84% and the pest or weed control at 140 g/ha [1, 5] was 85 to 94%. The pest or weed control at 70 g/ha [1, 6] was 95 to 100%, the pest or weed control at 140 g/ha [1, 6] was 95 to 100% and the pest or weed control at 70 g/ha [1, 7] was 95 to 100%. It also gave a pest or weed control at 140 g/ha [1, 7] of 95 to 100%, a pest or weed control at 70 g/ha [1, 8] of 95 to 100% and a pest or weed control at 140 g/ha [1, 8] of 95 to 100%. The pest or weed control at 70 g/ha [1, 9] was 85 to 94%, the pest or weed control at 140 g/ha [1, 9] was 95 to 100% and the pest or weed control at 70 g/ha [2, 10] was 85 to 94%. It also gave a pest or weed control at 140 g/ha [2, 10] of 95 to 100%, a pest or weed control at 70 g/ha [2, 11] of 30 to 44% and a pest or weed control at 140 g/ha [2, 11] of 75 to 84%. The pest or weed control at 70 g/ha [2, 12] was 95 to 100%, the pest or weed control at 140 g/ha [2, 12] was 95 to 100% and the pest or weed control at 70 g/ha [2, 13] was 0 to 29%. It also gave a pest or weed control at 140 g/ha [2, 13] of 0 to 29%, a pest or weed control at 70 g/ha [2, 14] of 30 to 44% and a pest or weed control at 140 g/ha [2, 14] of 45 to 59%. The pest or weed control at 70 g/ha [2, 15] was 85 to 94%, the pest or weed control at 140 g/ha [2, 15] was 85 to 94% and the pest or weed control at 70 g/ha [2, 16] was 0 to 29%. It also gave a pest or weed control at 140 g/ha [2, 16] of 30 to 44%, a pest or weed control at 70 g/ha [2, 17] of 85 to 94% and a pest or weed control at 140 g/ha [2, 17] of 85 to 94%. It also gave a melting point of 111 to 114 °C.

Compound `Cc1ccc(-c2nc(C(=O)O)c(Cl)c(N)c2F)c(F)c1F` [Compound 210] has a pest or weed control at 70 g/ha [1, 3] of 85 to 94%, a pest or weed control at 140 g/ha [1, 3] of 95 to 100% and a pest or weed control at 70 g/ha [1, 4] of 95 to 100%. The pest or weed control at 140 g/ha [1, 4] was 95 to 100%, the pest or weed control at 70 g/ha [1, 5] was 75 to 84% and the pest or weed control at 140 g/ha [1, 5] was 75 to 84%. The pest or weed control at 70 g/ha [1, 6] was 95 to 100%, the pest or weed control at 140 g/ha [1, 6] was 95 to 100% and the pest or weed control at 70 g/ha [1, 7] was 95 to 100%. The pest or weed control at 140 g/ha [1, 7] was 95 to 100%, the pest or weed control at 70 g/ha [1, 8] was 95 to 100% and the pest or weed control at 140 g/ha [1, 8] was 95 to 100%. For the same compound, the pest or weed control at 70 g/ha [1, 9] was 0 to 29%, the pest or weed control at 140 g/ha [1, 9] was 0 to 29% and the pest or weed control at 70 g/ha [2, 10] was 0 to 29%. It also gave a pest or weed control at 140 g/ha [2, 10] of 0 to 29%, a pest or weed control at 70 g/ha [2, 11] of 0 to 29% and a pest or weed control at 140 g/ha [2, 11] of 0 to 29%. The pest or weed control at 70 g/ha [2, 12] was 60 to 74%, the pest or weed control at 140 g/ha [2, 12] was 75 to 84% and the pest or weed control at 70 g/ha [2, 13] was 0 to 29%. It also gave a pest or weed control at 140 g/ha [2, 13] of 30 to 44%, a pest or weed control at 70 g/ha [2, 14] of 75 to 84% and a pest or weed control at 140 g/ha [2, 14] of 85 to 94%. For the same compound, the pest or weed control at 70 g/ha [2, 15] was 0 to 29%, the pest or weed control at 140 g/ha [2, 15] was 0 to 29% and the pest or weed control at 70 g/ha [2, 16] was 0 to 29%. For the same compound, the pest or weed control at 140 g/ha [2, 16] was 0 to 29%, the pest or weed control at 70 g/ha [2, 17] was 0 to 29% and the pest or weed control at 140 g/ha [2, 17] was 45 to 59%. For the same compound, the melting point was 159 °C (dec.).
